Test results taken from PMC9223267, “Serine hydroxymethyltransferase as a potential target of antibacterial agents acting synergistically with one-carbon metabolism-related inhibitors” (Communications Biology, 2022).
Like-named read-outs stand apart in the source and are kept apart here.

Key:
E. faecium [1] = experiment: Antibacterial activity evaluation (turbidity, OD600); type: cell-based, Enterococcus faecium (JCM5804); settings: for 50% effective concentration (EC50): growth of E. faecium
Method: (§1) E. faecium and E. faecalis were diluted to turbidity equivalents that matched 1.0 McFarland (McF) standard in distilled water (S. aureus and E. coli were also diluted to 0.5 McF), and additionally diluted 1:200 in Mueller–Hinton (MH) broth. The designated concentrations of the tested compounds were prepared by ten-fold serial dilutions directly in 96-well microtiter plates (IWAKI, Shizuoka, Japan), as previously described. […] The other compounds were serially diluted from 20 μM downwards (final concentration, 10 μM). […] Positive control wells included bacteria without any compound, and the negative control wells only contained MH broth. […] The optical density at 600 nm (OD600) was measured using a GloMax microtiter plate reader (Promega, WI, USA), and the EC50 values of each test compound and standard error were calculated by Microsoft Excel function, AVERAGE and STDEV/SQRT.

E. faecalis = experiment: as above; type: cell-based, Enterococcus faecalis (JCM7783); settings: E. faecalis JCM7783
Method: as §1

S. aureus = experiment: as above; type: cell-based, Staphylococcus aureus (ATCC29213); settings: S. aureus ATCC29213
Method: as §1

E. coli = experiment: as above; type: cell-based, Escherichia coli (ATCC25922); settings: E. coli ATCC25922
Method: as §1

E. faecium [2] = experiment: Bacterial viability assay (Microbial Viability Assay Kit-WST, OD450); type: cell-based, Enterococcus faecium; settings: for EC50: Enterococcus faecium
Method: Living E. faecium were determined using the Microbial Viability Assay Kit-WST (DOJINDO, Tokyo, Japan). […] Positive control wells included bacteria seeded into MH broth without compounds, and the negative control wells contained MH broth only. […] Five microlitres of the colouring reagent were added to each well of the 96-well plate every 2 h after starting incubation with each compound.

E. faecium [3] = experiment: Antibacterial assay with an excess concentration of biomolecules (Ser, Gly, inosine, dT, FA); type: cell-based, Enterococcus faecium (JCM5804)
Method: as §1
The ratio of the control EC50 (no competitors added) to the experimental EC50 (competitors added) was calculated for each test substance.

efmSHMT [4] = type: binding, Enterococcus faecium; settings: DSF; final drug concentration 50 μM
Method: Protein samples were prepared as 20 μL aliquots containing 0.1 mg/mL protein (efmSHMT/ecSHMT), 1 μL of the ligand in DMSO (final drug concentration, 50 μM) and 2% or 4% SYPRO Orange (Invitrogen, MA, USA). […] Melting points were evaluated as the half-point of the maximum intensity of each curve.

ecSHMT = molecular target: T1, ecSHMT (Escherichia coli, UniProt P0A825); experiment: Thermal stability analysis using differential scanning fluorimetry (DSF); type: binding, E. coli; settings: final drug concentration 50 μM
T1 construct: His tag (followed by PreScission protease cleavage site) (N, cleaved yes); made in house; host or cells: E. coli BL21(DE3)
Method: Protein samples were prepared as 20 μL aliquots containing 0.1 mg/mL protein (efmSHMT/ecSHMT), 1 μL of the ligand in DMSO (final drug concentration, 50 μM) and 2% or 4% SYPRO Orange (Invitrogen, MA, USA). Measurements were taken using StepOnePlus real-time PCR (Thermo Fisher Scientific) (temperature increment, 1.8%; range, 20–95 °C). Melting points were evaluated as the half-point of the maximum intensity of each curve.

efmSHMT [5] = molecular target: efmSHMT (Enterococcus faecium, UniProt I3U4H4, M1V); experiment: biochemical; type: binding
Method: After adding Me-THF, the efmSHMT solution was incubated for 30 min at room temperature. The optical density at 500 and 600 nm (OD500 and OD600) were then measured using a nanodrop spectrophotometer[24],[25]. OD600 was used as the background. After detection, each concentration of inhibitor was added to the efmSHMT solution and incubated for 30 min at room temperature. OD500 and OD600 were measured. The relative OD500 intensity was calculated as relative OD500 = (OD500 – OD600)/(MAXOD500 – OD600), where MAXOD500 is the average OD500 value in the presence of 1000, 2000 and 4000 μM Me-THF without inhibitors. […] Here, IC50 is the concentration of inhibitor added to the efmSHMT solution and [Me-THF] is the EC50 in the presence of the inhibitor concentration. [EC50 without inhibitor] is the EC50 of Me-THF in the absence of the inhibitor.

[6] = cited from earlier work
[7] = molecular target: the molecule itself; experiment: dynamic light scattering; 25 °C, Zetasizer NanoS, efmSHMT at 0.5 mg/mL, in triplicate; hydrodynamic radius 4.209 nm

Chain of efmSHMT (Enterococcus faecium, UniProt I3U4H4, M1V) (I3U4H4 whole entry M1V): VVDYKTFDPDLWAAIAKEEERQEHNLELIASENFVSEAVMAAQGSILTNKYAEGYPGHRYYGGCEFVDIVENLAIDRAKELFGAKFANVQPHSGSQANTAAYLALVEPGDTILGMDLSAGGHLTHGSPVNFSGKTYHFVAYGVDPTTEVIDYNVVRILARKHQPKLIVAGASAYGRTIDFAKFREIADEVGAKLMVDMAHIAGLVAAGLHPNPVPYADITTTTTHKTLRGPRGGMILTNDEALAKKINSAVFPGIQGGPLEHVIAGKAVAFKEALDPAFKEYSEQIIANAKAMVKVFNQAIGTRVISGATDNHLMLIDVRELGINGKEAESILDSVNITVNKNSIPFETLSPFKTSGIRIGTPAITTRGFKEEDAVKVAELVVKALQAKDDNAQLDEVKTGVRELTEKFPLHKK
T1 sequence (P0A825 whole entry): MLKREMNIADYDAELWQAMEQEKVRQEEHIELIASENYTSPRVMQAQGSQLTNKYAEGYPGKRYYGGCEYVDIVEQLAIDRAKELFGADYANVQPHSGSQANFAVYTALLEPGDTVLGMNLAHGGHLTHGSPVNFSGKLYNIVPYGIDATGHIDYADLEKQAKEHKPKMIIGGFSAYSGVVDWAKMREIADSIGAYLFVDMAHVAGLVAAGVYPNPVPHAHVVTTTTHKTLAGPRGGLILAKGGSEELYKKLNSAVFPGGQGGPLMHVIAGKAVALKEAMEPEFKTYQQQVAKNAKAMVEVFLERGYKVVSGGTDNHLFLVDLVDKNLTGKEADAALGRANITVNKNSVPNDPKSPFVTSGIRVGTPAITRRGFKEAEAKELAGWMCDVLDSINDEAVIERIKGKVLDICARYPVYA

Molecule: Cc1n[nH]c2c1[C@](c1cc(CO)cc(-c3ccccc3)c1)(C(C)C)C(C#N)=C(N)O2 [(+)-SHIN-1]
- EC50 (E. faecium [1]; Enterococcus faecium, read-out: 50% effective concentration (EC50), growth of E. faecium, order of magnitude given): 0.01 nM
- EC50 (E. faecium [1]; Enterococcus faecium, E. faecium JCM5804, read-out: EC50): 0.031 nM
- EC50 (E. faecium [1]; Enterococcus faecium, E. faecium JCM5804, read-out: pEC50 ± S.E. (converted)): 0.0316 nM
- EC50 (E. faecium [1]; Enterococcus faecium, E. faecium, value of the response letter (earlier manuscript version), read-out: EC50 (turbidity)): 0.044 ± 0.028 nM
- 50% effective concentration (EC50) (E. faecium [1]; order of magnitude given): 10^–10 to 10^–11 M
- EC50 (E. faecalis; Enterococcus faecalis, read-out: EC50): > 2000 nM
- EC50 (E. faecalis; Enterococcus faecalis, read-out: pEC50 ± S.E. (converted)): > 2000 nM
- EC50 (S. aureus; Staphylococcus aureus, read-out: EC50): > 2000 nM
- EC50 (S. aureus; Staphylococcus aureus, read-out: pEC50 ± S.E. (converted)): > 2000 nM
- EC50 (E. coli; Escherichia coli, read-out: EC50): > 2000 nM
- EC50 (E. coli; Escherichia coli, read-out: pEC50 ± S.E. (converted)): > 2000 nM
- mode of antibacterial action (time-dependent bacterial viability) (E. faecium [2]): bacteriostatically
- EC50 (E. faecium [2]; relative bacterial viability after 14 h incubation): 0.23 nM
- EC50 (E. faecium [2]; value of the response letter (earlier manuscript version)): 0.21 ± 0.13 nM
- EC50 (E. faecium [3]; Enterococcus faecium, JCM5804, E. faecium JCM5804, 1 mM Inosine, read-out: EC50): 0.36 nM
- EC50 (E. faecium [3]; Enterococcus faecium, JCM5804, E. faecium JCM5804, 1 mM Inosine, read-out: pEC50 ± S.E. (converted)): 0.398 nM
- EC50 (E. faecium [3]; Enterococcus faecium, JCM5804, E. faecium JCM5804, 1 mM deoxythymidine, read-out: EC50): > 2000 nM
- EC50 (E. faecium [3]; Enterococcus faecium, JCM5804, E. faecium JCM5804, 1 mM deoxythymidine, read-out: pEC50 ± S.E. (converted)): > 2000 nM
- EC50 (E. faecium [3]; Enterococcus faecium, JCM5804, E. faecium JCM5804, 10 mM Glycine, read-out: EC50): 0.12 nM
- EC50 (E. faecium [3]; Enterococcus faecium, JCM5804, E. faecium JCM5804, 10 mM Glycine, read-out: pEC50 ± S.E. (converted)): 0.126 nM
- EC50 (E. faecium [3]; Enterococcus faecium, JCM5804, E. faecium JCM5804, 100 mM Serine, read-out: EC50): 0.43 nM
- EC50 (E. faecium [3]; Enterococcus faecium, JCM5804, E. faecium JCM5804, 100 mM Serine, read-out: pEC50 ± S.E. (converted)): 0.398 nM
- EC50 (E. faecium [3]; Enterococcus faecium, JCM5804, E. faecium JCM5804, 0.1 M folate, read-out: EC50): > 2000 nM
- EC50 (E. faecium [3]; Enterococcus faecium, JCM5804, E. faecium JCM5804, 0.1 M folate, read-out: pEC50 ± S.E. (converted)): > 2000 nM
- ΔTm (thermal stability of efmSHMT) (efmSHMT [4]): 7 °C
- binding to ecSHMT (DSF) (ecSHMT): bound to ecSHMT
- Ki (efmSHMT [5]; Ki, 2.5 μM efmSHMT, 10 mM Gly and 100 μM Ser, Cheng-Prusoff): 8.8 nM
- Ki (efmSHMT [5]; Ki, 5 μM efmSHMT, 10 mM Gly and 100 μM Ser, Cheng-Prusoff): 28 nM
- Ki (efmSHMT [5]; actual Ki (bound, as the assay's efmSHMT detection limit is 2.5 μM), efmSHMT): < 8.8 nM
- Ki (efmSHMT [5]; pKi ± pSE, 2.5 μM efmSHMT, 10 mM Gly and 100 μM Ser): 7.94 nM
- Ki (efmSHMT [5]; pKi ± pSE, 5 μM efmSHMT, 10 mM Gly and 100 μM Ser): 25.1 nM

Molecule: Cc1[nH]nc2c1C(c1cc(CO)cc(-c3ccccc3)c1)(C(C)C)C(C#N)=C(N)O2 (centres unmarked) [SHIN-1]
- pEC50 ± S.E. (E. faecium [1]; E. faecium JCM5804): 9.3 ± 0.1
- EC50 (E. faecium [1]; E. faecium JCM5804, read-out: EC50): 0.5 nM
- 50% effective concentration (EC50) (E. faecium [1]; order of magnitude given): 10^–10 to 10^–11 M
- pEC50 ± S.E. (E. faecalis): < 5.7
- EC50 (E. faecalis; read-out: EC50): > 2000 nM
- pEC50 ± S.E. (S. aureus): < 5.7
- EC50 (S. aureus; read-out: EC50): > 2000 nM
- pEC50 ± S.E. (E. coli): < 5.7
- EC50 (E. coli; read-out: EC50): > 2000 nM
- pEC50 ± S.E. (E. faecium [3]; E. faecium JCM5804, 1 mM Inosine): 8.3 ± 0.3
- EC50 (E. faecium [3]; E. faecium JCM5804, 1 mM Inosine, read-out: EC50): 5.2 nM
- pEC50 ± S.E. (E. faecium [3]; E. faecium JCM5804, 1 mM deoxythymidine): < 5.7
- EC50 (E. faecium [3]; E. faecium JCM5804, 1 mM deoxythymidine, read-out: EC50): > 2000 nM
- pEC50 ± S.E. (E. faecium [3]; E. faecium JCM5804, 10 mM Glycine): 8.9 ± 0.0
- EC50 (E. faecium [3]; E. faecium JCM5804, 10 mM Glycine, read-out: EC50): 1.2 nM
- pEC50 ± S.E. (E. faecium [3]; E. faecium JCM5804, 100 mM Serine): 8.5 ± 0.1
- EC50 (E. faecium [3]; E. faecium JCM5804, 100 mM Serine, read-out: EC50): 3.4 nM
- pEC50 ± S.E. (E. faecium [3]; E. faecium JCM5804, 0.1 M folate): < 5.7
- EC50 (E. faecium [3]; E. faecium JCM5804, 0.1 M folate, read-out: EC50): > 2000 nM
- pharmacokinetic properties [6]: lacked pharmacokinetic properties suitable
- half-life ([6]; response letter, ref (6) García-Cañaveras et al. 2021): too short to use in vivo

B1: Enterococcus faecium serine hydroxymethyltransferase (enzyme)
chain: VDYKTFDPDLWAAIAKEEERQEHNLELIASENFVSEAVMAAQGSILTNKYAEGYPGHRYYGGCEFVDIVENLAIDRAKELFGAKFANVQPHSGSQANTAAYLALVEPGDTILGMDLSAGGHLTHGSPVNFSGKTYHFVAYGVDPTTEVIDYNVVRILARKHQPKLIVAGASAYGRTIDFAKFREIADEVGAKLMVDMAHIAGLVAAGLHPNPVPYADITTTTTHKTLRGPRGGMILTNDEALAKKINSAVFPGIQGGPLEHVIAGKAVAFKEALDPAFKEYSEQIIANAKAMVKVFNQAIGTRVISGATDNHLMLIDVRELGINGKEAESILDSVNITVNKNSIPFETLSPFKTSGIRIGTPAITTRGFKEEDAVKVAELVVKALQAKDDNAQLDEVKTGVRELTEKFPLHKK
modifications: pyridoxal 5'-phosphate (PLP) covalently linked as a Schiff's base to K226 (in the efmSHMT/(+)-SHIN-1 structure; relocated to Ser or Gly in the ternary complexes)
notes: theoretical monomer molecular weight 44.7 kDa; A few vector residues may remain at the N-terminus after PreScission cleavage; also called efmSHMT; E. faecium SHMT; source: E. coli BL21(DE3), purified (HisTrap, PreScission digestion, HiTrap Q, Superdex 75); not shown: His tag, N-terminal, cleaved
- stoichiometry N [7]: 2
